Experimental data reported in patent US10941114B2, “Small molecule lipid II inhibitors” (University Of Maryland, Baltimore, priority 2015, dated 2021).
Structures can show the parent of a compound that is named as a salt.

Assays:
Staphylococcus aureus = assay: Antibacterial activity assay (MIC, broth dilution); assay type: cell-based; design: S. aureus Killing / Bacterial Killing S. aureus: unit not given here; conditions: for MIC: Staphylococcus aureus, Table 21, read-out: Staphylococcus aureus MIC; for S. aureus Killing: anti-bacterial activity (MIC), strain not stated; for MIC SA USA300: Staphylococcus aureus USA 300 strain, broth microdilution
Enterococcus faecalis = assay: Antibacterial activity assay (MIC, broth dilution); assay type: cell-based; conditions: Enterococcus faecalis; Table 21; read-out: Escherichia feacalis MIC

Row | SMILES | S. aureus Killing (Staphylococcus aureus) | MIC SA USA300 (Staphylococcus aureus) | other results
1 | CN(CCC#N)c1ccc(/C=C/c2cc(-c3ccccc3)cc(-c3ccccc3)[o+]2)cc1.F[B-](F)(F)F | – | – | MIC (Staphylococcus aureus): > 64 µg/mL; MIC (Enterococcus faecalis): > 64 µg/mL
2 | Cc1ccc(-c2cc(/C=C/c3ccc(N(C)CCC#N)cc3)[o+]c(-c3ccc(C)cc3)c2)cc1.F[B-](F)(F)F | – | – | MIC (Staphylococcus aureus): > 64 µg/mL; MIC (Enterococcus faecalis): > 64 µg/mL
3 | CN(CCC#N)c1ccc(/C=C/c2cc(-c3ccc(C(C)(C)C)cc3)cc(-c3ccc(C(C)(C)C)cc3)[o+]2)cc1.F[B-](F)(F)F | – | – | MIC (Staphylococcus aureus): > 64 µg/mL; MIC (Enterococcus faecalis): > 64 µg/mL
4 | CN(C)c1ccc(/C=C/c2cc(-c3ccc(I)cc3)cc(-c3ccc(I)cc3)[o+]2)cc1.F[B-](F)(F)F | – | – | MIC (Staphylococcus aureus): > 64 µg/mL; MIC (Enterococcus faecalis): > 64 µg/mL
5 | Cn1cc(/C=C/c2cc(-c3ccccc3)cc(-c3ccccc3)[o+]2)c2ccccc21 [(E)-2-(2-(1-methyl-1H-indol-3-yl)vinyl)-4,6-diphenylpyrylium boron tetrafluoride salt] | 0.5 | – | –
6 | Cc1ccc(-c2cc(/C=C/c3c[nH]c4ccccc34)[o+]c(-c3ccc(C)c(C)c3)c2)cc1C [(E)-2-(2-(1H-indol-3-yl)vinyl)-4,6-bis(3,4-dimethylphenyl) pyrylium boron tetrafluoride salt] | 4 | – | –
7 | Brc1ccc(-c2cc(/C=C/c3c[nH]c4ccccc34)[o+]c(-c3ccc(Br)cc3)c2)cc1 [(E)-2-(2-(1H-indol-3-yl)vinyl)-4,6-bis(4-bromophenyl) pyrylium boron tetrafluoride salt] | >64 | – | –
8 | Clc1ccc(-c2cc(/C=C/c3c[nH]c4ccccc34)[o+]c(-c3ccc(Cl)cc3)c2)cc1 [(E)-2-(2-(1H-indol-3-yl)vinyl)-4,6-bis(4-chlorophenyl) pyrylium boron tetrafluoride salt] | 16 | – | –
9 | CCc1ccc(-c2cc(/C=C/c3c[nH]c4ccccc34)[o+]c(-c3ccc(CC)cc3)c2)cc1 [(E)-2-(2-(1H-indol-3-yl)vinyl)-4,6-bis(4-ethylphenyl) pyrylium boron tetrafluoride salt] | 4 | – | –
10 | Cc1ccc(-c2cc(/C=C/c3c[nH]c4ccccc34)[o+]c(-c3ccc(C)cc3)c2)cc1 [(E)-2-(2-(1H-indol-3-yl)vinyl)-4,6-di-p-tolylpyiylium boron tetrafluoride salt] | 4 | – | –
11 | C(=C\c1c[nH]c2ccccc12)/c1cc(-c2ccccc2)cc(-c2ccccc2)[o+]1 [(E)-2-(2-(1H-indol-3-yl)vinyl)-4,6-diphenylpyrylium boron tetrafluoiide salt] | 1 | – | –
12 | CC(C)(C)c1ccc(-c2cc(/C=C/c3c[nH]c4ccccc34)[o+]c(-c3ccc(C(C)(C)C)cc3)c2)cc1 [(E)-2-(2-(1H-mdol-3-yl)vinyl)-4,6-bis(4-(tert-butyl)phenyl) pyrylium boron tetrafluoride salt] | 32 | – | –
13 | Cc1ccc(-c2cc(/C=C/c3ccc(N(C)C)cc3)[o+]c(-c3ccc(C)c(C)c3)c2)cc1C [(E)-2-(4-(dimethylamino)styryl)-4,6-bis(3,4-dimethylphenyl) pyrylium boron tetrafluoride salt] | 2 | – | –
14 | CCc1ccc(-c2cc(/C=C/c3ccc(N(C)C)cc3)[o+]c(-c3ccc(CC)cc3)c2)cc1 [(E)-2-(4-(dimethylamino)styryl)-4,6-bis(4-ethylphenyl) pyryliurn boron tetrafluoride salt] | 1 | – | –
15 | Cc1ccc(-c2cc(/C=C/c3ccc(N(C)C)cc3)[o+]c(-c3ccc(C)cc3)c2)cc1 [(E)-2-(4-(dimethylamino)styryl)-4,6-di-p-tolylpyrylium boron tetrafluoride salt] | 0.5 | – | –
16 | CN(C)c1ccc(/C=C/c2cc(-c3ccccc3)cc(-c3ccccc3)[o+]2)cc1 [(E)-2-(4-(dimethylamino)styryl)-4,6-diphenylpyrylium boron tetrafluoride salt] | 2 | – | –
17 | CCc1ccc(-c2cc(/C=C/c3cn(C)c4ccccc34)[o+]c(-c3ccc(CC)cc3)c2)cc1 [(E)-2.4-bis(4-ethylphenyl)-6-(2-(1-methyl-1H-indol-3-yl)vinyl)pyrylium boron tetrafiuoride salt] | 1 | – | –
18 | Cc1cc(/C=C/c2ccc(N(C)C)cc2)cc(C)[o+]1 [(E)-4-(4-(dimethylamino)styryl)-2,6-dimethvlpyrylium boron tetrafluoride salt] | 16 | – | –
19 | CN(C)c1ccc(/C=C/c2cc(-c3ccccc3)cc(-c3ccc(F)cc3)[n+]2C)cc1.[I-] [Compound 3jc07-1, (E)-2-(4-(dimethylamino)styryl)-6-(4-fluorophenyl)-1-methyl-4-phenylpyridin-1-ium iodide salt] | – | 4 µg/mL | –

Row | SMILES | S. aureus Killing (Staphylococcus aureus) | MIC SA USA300 (Staphylococcus aureus) | other results
20 | CN(CCC#N)c1ccc(/C=C/c2cc(-c3ccccc3)cc(-c3ccc(F)cc3)[n+]2C)cc1.[I-] [Compound 3jc07-2, (E)-2-(4-((2-cyanoethyl)(methyl)amino)styryl)-6-(4-fluorophenyl)-1-methyl-4-phenylpyridin-1-ium iodide salt] | – | 32 µg/mL | –
21 | CN(C)c1ccc(/C=C/c2cc(-c3ccccc3)cc(-c3ccc(Br)cc3)[n+]2C)cc1.[I-] [Compound 3jc07-3, (E)-2-(4-bromophenyl)-6-(4-(dimethylamino)styryl)-1-methyl-4-phenylpyridin-1-ium iodide salt] | – | 2 µg/mL | –
22 | CN(CCC#N)c1ccc(/C=C/c2cc(-c3ccccc3)cc(-c3ccc(Br)cc3)[n+]2C)cc1.[I-] [Compound 3jc07-4, (E)-2-(4-bromophenyl)-6-(4-((2-cyanoethyl)(methyl)amino)styryl)-1-methyl-4-phenylpyridin-1-ium iodide salt] | – | 32 µg/mL | –
23 | COc1ccc(-c2cc(/C=C/c3ccc(N(C)C)cc3)[n+](C)c(-c3ccc(F)cc3)c2)cc1.[I-] [Compound 3jc07-5, (E)-2-(4-(dimethylamino)styryl)-6-(4-fluorophenyl)-4-(4-methoxyphenyl)-1-methylpyridin-1-ium iodide salt] | – | 1 µg/mL | –
24 | COc1ccc(-c2cc(/C=C/c3ccc(N(C)CCC#N)cc3)[n+](C)c(-c3ccc(F)cc3)c2)cc1.[I-] [Compound 3jc07-6, (E)-2-(4-((2-cyanoethyl)(methyl)amino)styryl)-6-(4-fluorophenyl)-4-(4-methoxyphenyl)-1-methylpyridin-1-ium iodide salt] | – | 16 µg/mL | –
25 | COc1ccc(-c2cc(/C=C/c3ccc(N(C)C)cc3)[n+](C)c(-c3ccc(Br)cc3)c2)cc1.[I-] [Compound 3jc07-7, (E)-2-(4-bromophenyl)-6-(4-(dimethylamino)styryl)-4-(4-methoxyphenyl)-1-methylpyridin-1-ium iodide salt] | – | 1 µg/mL | –
26 | COc1ccc(-c2cc(/C=C/c3ccc(N(C)CCC#N)cc3)[n+](C)c(-c3ccc(Br)cc3)c2)cc1.[I-] [Compound 3jc07-8] | – | 16 µg/mL | –
27 | CN(C)c1ccc(/C=C/c2cc(-c3ccc(I)cc3)cc(-c3ccc(F)cc3)[n+]2C)cc1.[I-] [Compound 3jc07-9, (E)-2-(4-(dimethylamino)styryl)-6-(4-fluorophenyl)-4-(4-iodophenyl)-1-methylpyridin-1-ium iodide salt] | – | 4 µg/mL | –
28 | CN(CCC#N)c1ccc(/C=C/c2cc(-c3ccc(I)cc3)cc(-c3ccc(F)cc3)[n+]2C)cc1.[I-] [Compound 3jc07-10, (E)-2-(4-((2-cyanoethyl)(methyl)amino)styryl)-6-(4-fluorophenyl)-4-(4-iodophenyl)-1-methylpyridin-1-ium iodide salt] | – | 32 µg/mL | –
29 | CN(C)c1ccc(/C=C/c2cc(-c3ccc(I)cc3)cc(-c3ccc(Br)cc3)[n+]2C)cc1.[I-] [Compound 3jc07-11, (E)-2-(4-bromophenyl)-6-(4-(dimethylamino)styryl)-4-(4-iodophenyl)-1-methylpyridin-1-ium iodide salt] | – | 4 µg/mL | –
30 | CN(CCC#N)c1ccc(/C=C/c2cc(-c3ccc(I)cc3)cc(-c3ccc(Br)cc3)[n+]2C)cc1 [Compound 3jc07-12, (E)-2-(4-bromophenyl)-6-(4-((2-cyanoethyl)(methyl)amino)styryl)-4-(4-iodophenyl)-1-methylpyridin-1-ium iodide salt] | – | 32 µg/mL | –
31 | CN(CCC#N)c1ccc(/C=C/c2cc(-c3ccc(F)cc3)cc(-c3ccc(F)cc3)[o+]2)cc1.F[B-](F)(F)F [Compound 3jc09-1, (E)-2-(4-((2-cyanoethyl)(methyl)amino)styryl)-4,6-bis(4-fluorophenyl)pyrylium boron tetrafluoride salt] | – | > 64 µg/mL | –
32 | CN(CCC#N)c1ccc(/C=C/c2cc(-c3ccc(Br)cc3)cc(-c3ccc(Br)cc3)[o+]2)cc1 [Compound 3jc09-2, (E)-2,4-bis(4-bromophenyl)-6-(4-((2-cyanoethyl)(methyl)amino)styryl)pyrylium boron tetrafluoride salt] | – | > 64 µg/mL | –
33 | CN(C)c1ccc(/C=C/c2cc(-c3ccc(Br)cc3)cc(-c3ccc(Br)cc3)[o+]2)cc1 [drawing 88, (E)-2,4-bis(4-bromophenyl)-6-(4-(dimethylamino)styryl)pyrylium boron tetrafluoride salt] | 32 | – | –
34 | CN1/C(=C/C=C/c2cc(-c3ccccc3)cc(-c3ccccc3)[o+]2)C(C)(C)c2ccccc21 [drawing 116, 2,4-diphenyl~6-((1E,3E)-3-(1,3,3-trimethylindolin-2-ylidene)prop-1-en-1-yl)pyrylium boron tetrafluoride salt] | 0.5 | – | –
35 | Cc1ccc(-c2cc(/C=C/C=C3/N(C)c4ccccc4C3(C)C)[o+]c(-c3ccc(C)cc3)c2)cc1 [drawing 117, 2,4-di-p-tolyl-6-((1E,3E)-3-(1,3,3-trimethylindolin-2-ylidene)prop-1-en-1-yl)pyrylium boron tetrafluoride salt] | 1 | – | –
36 | CCc1ccc(-c2cc(/C=C/c3cc4c5c(c3)CCCN5CCC4)[o+]c(-c3ccc(CC)cc3)c2)cc1 [drawing 120, (E)-2,4-bis(4-ethylphenyl)-6-(2-(1,2,3,5,6,7-hexahydropyrido [3,2,1-ij]quinolin-9-yl)vinyl)pyrylium boron tetrafluoride salt] | 1 | – | –
37 | Cc1ccc(-c2cc(/C=C/c3cc4c5c(c3)CCCN5CCC4)[o+]c(-c3ccc(C)c(C)c3)c2)cc1C [drawing 122, (E)-2,4-bis(3.4-dimethyiphenyl)-6-(2-(1,2,3,5,6,7-hexahydropyrido [3,2,1-ij]quinolin-9-yl)vinyl)pyrylium boron tetrafluoride salt] | 0.5 | – | –
